molecular target: EGFR WT (Homo sapiens (Human), UniProt P00533); assay: ErbB enzyme assay (CisBio HTRF-KinEASE-TK), EGFR WT; assay type: biochemical; settings: ATP at Km (25 μM), 1 h incubation
Protocol: In vitro enzyme assays based on CisBio HTRF-KinEASE-TK technology were used to determine compound potencies. […]. Compounds were prepared as a three-fold serial dilution in DMSO and added to the assay to give the appropriate final concentration. After a 1 h incubation at ambient temperature, the reaction was quenched by adding 10 μL of 62.5 nM Sa-XL665 and 0.25×TK-Ab-Cryptate in HTRF detection buffer (all from CisBio, part of cat #62TKOPEC). After another 1 h incubation at ambient temperature, the extent of substrate phosphorylation was determined using a PerkinElmer EnVision multimode plate reader via time-resolved fluorescence dual wavelength detection. The percent of control (POC) was calculated using the ratio of emission at […] to the emission at 620 nm. One hundred POC was determined using DMSO only controls (no test compounds present) and zero POC was determined using pre-quenched controls reactions. A 4-parameter logistic equation was fit to the POC values as a function of the test compound concentration and the IC50 value was determined as the point where the curve crossed 50 POC.

Chain of EGFR WT (P00533 25-1210): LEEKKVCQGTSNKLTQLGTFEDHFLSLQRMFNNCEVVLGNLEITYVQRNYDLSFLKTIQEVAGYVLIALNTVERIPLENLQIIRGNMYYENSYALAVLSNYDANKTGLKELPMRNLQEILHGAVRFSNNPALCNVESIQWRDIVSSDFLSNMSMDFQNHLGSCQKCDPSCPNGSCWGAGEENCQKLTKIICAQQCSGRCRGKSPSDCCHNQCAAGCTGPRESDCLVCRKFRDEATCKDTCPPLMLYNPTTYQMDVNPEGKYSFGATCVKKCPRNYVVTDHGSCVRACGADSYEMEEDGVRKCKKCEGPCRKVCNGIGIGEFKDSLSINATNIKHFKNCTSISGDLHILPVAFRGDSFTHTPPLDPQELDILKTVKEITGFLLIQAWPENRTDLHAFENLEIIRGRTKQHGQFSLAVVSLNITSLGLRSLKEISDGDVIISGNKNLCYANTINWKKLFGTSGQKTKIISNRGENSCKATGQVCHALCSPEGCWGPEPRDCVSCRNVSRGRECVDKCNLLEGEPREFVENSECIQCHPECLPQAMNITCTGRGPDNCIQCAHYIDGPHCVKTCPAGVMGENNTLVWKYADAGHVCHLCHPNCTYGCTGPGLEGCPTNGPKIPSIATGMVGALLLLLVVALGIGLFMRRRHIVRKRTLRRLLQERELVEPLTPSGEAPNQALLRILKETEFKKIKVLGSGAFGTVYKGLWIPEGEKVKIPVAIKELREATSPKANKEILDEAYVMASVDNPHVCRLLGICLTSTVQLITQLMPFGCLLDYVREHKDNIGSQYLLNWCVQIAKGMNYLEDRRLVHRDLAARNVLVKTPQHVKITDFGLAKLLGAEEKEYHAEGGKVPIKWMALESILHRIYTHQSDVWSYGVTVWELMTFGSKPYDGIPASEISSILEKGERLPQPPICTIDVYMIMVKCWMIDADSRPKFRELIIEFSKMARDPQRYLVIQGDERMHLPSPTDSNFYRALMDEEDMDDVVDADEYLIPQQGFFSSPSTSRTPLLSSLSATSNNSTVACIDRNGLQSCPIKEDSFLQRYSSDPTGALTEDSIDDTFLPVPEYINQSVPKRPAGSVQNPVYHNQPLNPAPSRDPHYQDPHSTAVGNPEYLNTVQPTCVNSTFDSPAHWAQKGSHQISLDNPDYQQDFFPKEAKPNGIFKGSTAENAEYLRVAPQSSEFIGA

SMILES	IC50 [nM]
C=CC(=O)N[C@@H]1CCCN(c2ncc3ncnc(Nc4ccc(Oc5ccc6c(c5)nnn6C)c(C)c4)c3n2)C1 [Compound 125, (R)-N-(1-(8-((3-methyl-4-((1-methyl-1H-benzo[d][1,2,3]triazol-5-yl)oxy)phenyl)amino)pyrimido [5,4-d]pyrimidin-2-y1)piperidin-3-yl)acrylamide]	100 to 500
C=CC(=O)N[C@H]1CCCN(c2ncc3ncnc(Nc4ccc(Oc5ccc6c(c5)nnn6C)c(C)c4)c3n2)C1 [Compound 126, (S)-N-(1-(8-((3-methyl-4-((1-methyl-1H-benzo[d][1,2,3]triazol-5-yl)oxy)phenyl)amino)pyrimido [5,4-d]pyrimidin-2-yl)piperidin-3-yl)acrylamide]	500 to 1000
C=CC(=O)N1CCN(c2ccc3ncnc(Nc4ccc(Oc5ccc6c(c5)nnn6C)c(C)c4)c3n2)C[C@@H]1CC#N [Compound 83, (S)-2-(1-acryloyl-4-(4-((3-methyl-4-((1-methyl-1H-benzo[d][1,2,3]triazol-5-yl)oxy)phenyl)amino)pyrido[3,2-d]pyrimidin-6-yl)piperazin-2-yl)acetonitrile]	< 50
C=CC(=O)N1CCN(c2ccc3ncnc(Nc4ccc(Oc5cnc6c(c5)ncn6C(F)F)c(C)c4)c3n2)C[C@H]1C [Compound 249, (R)-1-(4-(4-((4-((3-(difluoromethyl)-3H-imidazo[4,5-b]pyridin-6-yl)oxy)-3-methylphenyl)amino)pyrido[3,2-d]pyrimidin-6-yl)-2-methylpiperazin-1-yl)prop-2-en-1-one]	< 50
C=CC(=O)N1CCN(c2ncc3ncnc(Nc4ccc(Oc5ccc6c(c5)ncn6C(F)F)c(C)c4)c3n2)C[C@H]1C [Compound 162, (R)-1-(4-(8-((4-((1-(difluoromethyl)-1H-benzo[d]imidazol-5-yl)oxy)-3-methylphenyl)amino)pyrimido[5,4-d]pyrimidin-2-y1)-2-methylpiperazin-1-yl)prop-2-en-1-one]	100 to 500
C=CC(=O)N1CCN(c2ccc3ncnc(Nc4ccc(Oc5cc6nnn(C)c6cc5F)c(C)c4)c3n2)C[C@H]1C [Compound 262, (R)-1-(4-(4-((4-((6-fluoro-1-methyl-1H-benzo[d][1,2,3]triazol-5-yl)oxy)-3-methylphenyl)amino)pyrido[3,2-d]pyrimidin-6-yl)-2-methylpiperazin-1-yl)prop-2-en-1-one]	100 to 500
C=CC(=O)N[C@H]1CCN(c2ncc3ncnc(Nc4ccc(Oc5ccc6c(c5)nnn6C)c(C)c4)c3n2)C1 [Compound 154, (S)-N-(1-(8-((3-methyl-4-((1-methyl-1H-benzo[d][1,2,3]triazol-5-yl)oxy)phenyl)amino)pyrimido [5,4-d]pyrimidin-2-yl)pyrrolidin-3-yl)acrylamide]	100 to 500
Cc1cc(Nc2ncnc3ccc(N4CC5CCC(C4)N5C(=O)/C=C/C(F)F)nc23)ccc1Oc1ccc2c(c1)nnn2C [Compound 358, (E)-4,4-difluoro-1-(3-(4-((3-methyl-4-((1-methyl-1H-benzo[d][1,2,3]triazol-5-yl)oxy)phenyl)amino)pyrido[3,2-d]pyrimidin-6-yl)-3,8-diazabicyclo[3.2.1]octan-8-yl)but-2-en-1-one]	50 to 100
C=CC(=O)N1CCC(Oc2nc3c(Nc4ccc(Oc5ccc6c(c5)ncn6C)c(C)c4F)ncnc3cc2OC)CC1 [Compound 394, 1-(4-((4-((2-fluoro-3-methyl-4-((1-methyl-1H-benzo[1d]imidazol-5-yl)oxy)phenyl)amino)-7-methoxypyrido[3,2-d]pyrimidin-6-yl)oxy)piperidin-1-yl)prop-2-en-1-one]	< 50
C=CC(=O)N[C@]1(C)CCN(c2ccc3ncnc(Nc4ccc(Oc5ccc6c(c5)nnn6C)c(C)c4)c3n2)C1 [Compound 263, (R)-N-(3-methyl-1-(4-((3-methyl-4-((1-methyl-1H-benzo[d][1,2,3]triazol-5-yl)oxy)phenyl)amino)pyrido[3,2-d]pyrimidin-6-yl)pyrrolidin-3-yl)acrylamide]	100 to 500
